Reference: US20110281949A1, “METHODS AND COMPOSITIONS FOR TREATING NEURONAL DAMAGE AND MODULATING TRANSIENT RECEPTOR POTENTIAL CHANNELS” (priority 2008, published 2011)
“Also recorded” adds a separate entry of the source. Like-named read-outs stand apart in the source and are kept apart here.

What was measured:
TRPL channels = target: T1, TRPL channels (Drosophila melanogaster, UniProt P48994); assay: Whole-cell patch clamp of TRPL channels expressed in S2 cells; conditions: for Effect on TRPL-mediated current / Effect on current when TRPL channels were not expressed (control): IX 500 μM, XVII 5 mM; for Effect on TRPL-mediated current: XIII 3 mM, XIV 1 mM, XII 2 mM, XV up to 5 mM, X 5 mM, XVI 5 mM, XI 10 mM; for TRPL Activation/Inhibition: TRPL expressed in S2 cells; for Effect on current when TRPL channels were not expressed (control): S2 cells without TRPL expression
T1 sequence (P48994 1-1124): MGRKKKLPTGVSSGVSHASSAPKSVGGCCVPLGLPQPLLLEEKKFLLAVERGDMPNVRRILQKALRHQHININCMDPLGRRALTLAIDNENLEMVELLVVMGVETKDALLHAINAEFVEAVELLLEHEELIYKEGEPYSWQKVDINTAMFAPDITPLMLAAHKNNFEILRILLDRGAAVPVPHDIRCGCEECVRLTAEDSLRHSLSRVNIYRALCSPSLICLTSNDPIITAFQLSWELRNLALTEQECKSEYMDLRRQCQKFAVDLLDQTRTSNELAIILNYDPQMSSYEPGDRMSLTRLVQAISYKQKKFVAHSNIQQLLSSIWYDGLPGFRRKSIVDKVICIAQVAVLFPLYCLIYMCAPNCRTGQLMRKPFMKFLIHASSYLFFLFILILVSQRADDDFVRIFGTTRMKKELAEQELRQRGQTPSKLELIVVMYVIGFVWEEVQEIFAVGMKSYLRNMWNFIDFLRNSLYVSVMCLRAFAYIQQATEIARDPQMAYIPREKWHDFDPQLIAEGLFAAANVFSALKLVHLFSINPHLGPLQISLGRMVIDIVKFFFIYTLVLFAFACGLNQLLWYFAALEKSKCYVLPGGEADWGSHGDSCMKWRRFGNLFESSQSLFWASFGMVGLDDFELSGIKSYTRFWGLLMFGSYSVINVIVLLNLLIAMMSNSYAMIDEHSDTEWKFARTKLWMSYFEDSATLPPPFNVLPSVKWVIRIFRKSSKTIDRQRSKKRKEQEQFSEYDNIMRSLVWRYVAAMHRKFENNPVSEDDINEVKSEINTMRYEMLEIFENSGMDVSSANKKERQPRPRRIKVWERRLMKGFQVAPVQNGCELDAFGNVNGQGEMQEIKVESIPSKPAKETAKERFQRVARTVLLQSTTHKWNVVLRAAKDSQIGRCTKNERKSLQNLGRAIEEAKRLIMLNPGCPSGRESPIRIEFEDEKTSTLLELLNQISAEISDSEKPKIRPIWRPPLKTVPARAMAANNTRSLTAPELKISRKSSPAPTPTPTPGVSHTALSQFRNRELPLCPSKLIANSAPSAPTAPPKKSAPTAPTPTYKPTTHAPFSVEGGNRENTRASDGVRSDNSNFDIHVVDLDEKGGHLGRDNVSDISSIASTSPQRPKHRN
Protocol: Schneider 2 cells were grown in 25 cm^2 flasks at 25° C. in Schneider medium (Beit HaEmek biological industries, Israel) supplemented with 10% fetal bovine serum (FBS) and 1% pen-strep reagent.
24 hours prior to the experiment, 500 μM CuSO4 was added to the medium of the S2 cells to induce expression of the channels. […] Currents were recorded at room temperature using borosilicate patch pipettes of 5-8 MΩ and an Axopatch 1D (Molecular Devices, Inc.) voltage-clamp amplifier. […] Currents were filtered using the 8-pole low pass Bessel filter of the patch-clamp amplifier at 5 kHz and sampled at 20 kHz. To measure I-V curves with minimal distortions, only cells with low (<10 MΩ) series resistance were used, and series resistance was compensated to ˜80%.
For S2 cells, the extracellular solution contained in mM: 150 NaCl, 5 KCl, 4 MgCl2, 10 TES, 25 proline, 5 alanine and 0.5 EGTA. The intracellular solution contained in mM: 130 K-gluconate, 10 TES, 2 MgCl2, 4 Mg-ATP and 0.4 Na-GTP. […] All solutions were titrated to pH 7.2. Cells were perfused via a BPS-8 valve control system (Scientific Instruments) at a rate of ˜30 chamber volumes per minute. Chemicals were applied via the perfusion system.

TRPV3 = conditions: literature; cited from earlier work
TRPA1 = TRPA1 (Homo sapiens, UniProt O75762); conditions: irreversible, by covalent modification; cited from earlier work
Chain of TRPA1 (O75762 whole entry, species assumed): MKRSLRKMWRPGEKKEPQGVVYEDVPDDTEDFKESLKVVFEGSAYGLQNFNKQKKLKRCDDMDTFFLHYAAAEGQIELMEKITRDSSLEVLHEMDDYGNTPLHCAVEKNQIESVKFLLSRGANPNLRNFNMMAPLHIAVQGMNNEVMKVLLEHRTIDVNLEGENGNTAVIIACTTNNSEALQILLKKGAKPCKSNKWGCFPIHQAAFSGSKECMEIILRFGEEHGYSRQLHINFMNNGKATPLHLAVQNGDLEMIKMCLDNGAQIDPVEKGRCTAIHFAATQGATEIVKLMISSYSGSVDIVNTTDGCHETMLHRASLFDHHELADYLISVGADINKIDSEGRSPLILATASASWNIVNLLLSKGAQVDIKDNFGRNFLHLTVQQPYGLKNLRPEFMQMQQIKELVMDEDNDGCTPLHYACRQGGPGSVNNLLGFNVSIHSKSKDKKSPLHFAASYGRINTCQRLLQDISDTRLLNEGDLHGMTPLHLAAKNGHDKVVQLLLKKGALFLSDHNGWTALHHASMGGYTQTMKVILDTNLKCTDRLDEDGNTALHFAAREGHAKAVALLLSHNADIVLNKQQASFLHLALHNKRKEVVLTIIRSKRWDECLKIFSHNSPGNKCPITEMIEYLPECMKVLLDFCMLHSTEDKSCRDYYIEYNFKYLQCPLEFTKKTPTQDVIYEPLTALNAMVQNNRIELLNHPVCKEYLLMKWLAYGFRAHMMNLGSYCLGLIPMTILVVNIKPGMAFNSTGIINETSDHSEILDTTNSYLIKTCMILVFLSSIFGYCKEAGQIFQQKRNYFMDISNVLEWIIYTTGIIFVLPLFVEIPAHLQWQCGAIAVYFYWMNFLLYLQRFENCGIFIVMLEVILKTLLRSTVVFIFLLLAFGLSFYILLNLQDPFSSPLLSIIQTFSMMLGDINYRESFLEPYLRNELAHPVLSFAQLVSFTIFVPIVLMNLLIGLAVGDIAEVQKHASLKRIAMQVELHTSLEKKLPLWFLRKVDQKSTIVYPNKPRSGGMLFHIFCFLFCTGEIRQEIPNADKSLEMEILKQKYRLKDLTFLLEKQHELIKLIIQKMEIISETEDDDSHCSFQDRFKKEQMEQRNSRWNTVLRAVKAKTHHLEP

TRPM7 [1] = target: T2, TRPM7 (Mus musculus, UniProt Q923J1); assay: Whole-cell patch clamp of TRPM7 expressed in HEK cells; format: cell-based, mammalian; design: expressed in transfected cells; host or cells: HEK / HEK293 cells, transient, TransIT reagent (Mirus); conditions: for Effect on TRPM7-mediated current: HEK cells expressing TRPM7, IX 500 μM
T2 sequence (Q923J1 whole entry): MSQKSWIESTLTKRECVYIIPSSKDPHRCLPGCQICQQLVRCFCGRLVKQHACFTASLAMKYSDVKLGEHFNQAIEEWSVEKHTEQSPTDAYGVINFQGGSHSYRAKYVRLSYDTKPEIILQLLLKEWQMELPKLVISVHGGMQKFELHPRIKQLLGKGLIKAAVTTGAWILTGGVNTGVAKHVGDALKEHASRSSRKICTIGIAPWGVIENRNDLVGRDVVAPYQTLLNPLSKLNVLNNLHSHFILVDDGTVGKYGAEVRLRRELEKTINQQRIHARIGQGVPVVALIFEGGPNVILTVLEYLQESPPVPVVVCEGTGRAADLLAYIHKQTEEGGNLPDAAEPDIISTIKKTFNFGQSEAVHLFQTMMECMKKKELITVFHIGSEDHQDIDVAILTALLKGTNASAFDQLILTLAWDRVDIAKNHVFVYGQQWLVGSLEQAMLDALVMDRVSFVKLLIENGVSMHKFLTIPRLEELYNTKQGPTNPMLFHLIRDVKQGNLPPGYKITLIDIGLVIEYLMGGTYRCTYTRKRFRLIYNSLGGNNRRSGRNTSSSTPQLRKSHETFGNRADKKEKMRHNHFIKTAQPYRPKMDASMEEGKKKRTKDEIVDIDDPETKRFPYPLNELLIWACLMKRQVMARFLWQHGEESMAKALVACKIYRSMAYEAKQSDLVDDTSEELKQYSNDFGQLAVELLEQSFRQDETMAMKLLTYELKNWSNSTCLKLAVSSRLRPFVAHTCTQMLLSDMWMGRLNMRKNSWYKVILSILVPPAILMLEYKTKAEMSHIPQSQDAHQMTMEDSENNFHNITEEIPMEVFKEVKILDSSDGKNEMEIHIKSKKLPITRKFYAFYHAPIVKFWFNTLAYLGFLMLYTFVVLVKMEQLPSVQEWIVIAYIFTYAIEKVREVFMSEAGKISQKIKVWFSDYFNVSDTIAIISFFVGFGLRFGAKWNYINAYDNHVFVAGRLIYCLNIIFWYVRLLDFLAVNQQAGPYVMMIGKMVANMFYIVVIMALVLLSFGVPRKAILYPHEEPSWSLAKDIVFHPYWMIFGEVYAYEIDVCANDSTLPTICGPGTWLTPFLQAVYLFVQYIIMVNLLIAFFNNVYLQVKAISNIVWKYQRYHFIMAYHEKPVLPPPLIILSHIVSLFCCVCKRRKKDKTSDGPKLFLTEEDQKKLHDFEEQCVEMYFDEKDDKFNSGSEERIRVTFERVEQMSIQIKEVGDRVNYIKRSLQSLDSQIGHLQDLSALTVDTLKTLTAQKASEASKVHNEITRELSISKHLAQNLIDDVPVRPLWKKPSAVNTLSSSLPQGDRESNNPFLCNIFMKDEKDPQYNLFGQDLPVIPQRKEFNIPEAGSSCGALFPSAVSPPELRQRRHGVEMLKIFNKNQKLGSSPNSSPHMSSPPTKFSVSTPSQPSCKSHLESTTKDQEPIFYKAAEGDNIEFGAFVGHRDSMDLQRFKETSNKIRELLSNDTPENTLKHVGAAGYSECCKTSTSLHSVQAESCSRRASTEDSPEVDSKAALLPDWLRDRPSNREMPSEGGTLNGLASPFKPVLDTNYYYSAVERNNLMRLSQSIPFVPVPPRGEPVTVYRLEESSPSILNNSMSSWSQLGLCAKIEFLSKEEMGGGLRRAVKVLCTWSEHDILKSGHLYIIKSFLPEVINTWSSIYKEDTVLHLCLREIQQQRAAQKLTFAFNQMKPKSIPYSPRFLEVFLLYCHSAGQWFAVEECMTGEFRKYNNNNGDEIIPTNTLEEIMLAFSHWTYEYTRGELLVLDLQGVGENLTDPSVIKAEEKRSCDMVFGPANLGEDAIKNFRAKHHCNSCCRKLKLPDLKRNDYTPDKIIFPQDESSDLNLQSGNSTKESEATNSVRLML
Protocol: Human embryonic kidney (HEK) cells were grown in 25 cm^2 flasks at 37° C. in Dulbecco's Modified Eagle's Medium (DMEM) (Beit Haemek biological industries, Israel) supplemented with 10% FBS, 1% pen-strep and 1% L-Glutamine. TRPM7 (GenBank accession number NM—021450; SEQ ID No: 19; provided by David Clapham) and pIRES-eGFP were transiently expressed using TransIT™ reagent (Mirus).
Cells were seeded on polylysine-coated plates at a confluence of 25%, 24-72 hours prior to the experiment. […] Whole-cell, patch-clamp recordings were performed as described (Parnas et al, 2007). Currents were recorded at room temperature using borosilicate patch pipettes of 5-8 MΩ and an Axopatch 1D (Molecular Devices, Inc.) voltage-clamp amplifier. Voltage-clamp pulses were generated and data captured using a Digidata 1322A interfaced to a computer running the pClamp 9.2 software (Axon Instruments, Inc.). Currents were filtered using the 8-pole low pass Bessel filter of the patch-clamp amplifier at 5 kHz and sampled at 20 kHz. To measure I-V curves with minimal distortions, only cells with low (<10 MΩ) series resistance were used, and series resistance was compensated to ˜80%.
For HEK cells, the extracellular solution contained in mM: 140 NaCl, 2.8 KCl, 2 CaCl2, 1 MgCl2, HEPES and 10 glucose. The intracellular solution contained in mM: 140 Cs-Aspartate, 8 NaCl, 10 EGTA and 10 HEPES. All solutions were titrated to pH 7.2. Cells were perfused via a BPS-8 valve control system (Scientific Instruments) at a rate of ˜30 chamber volumes per minute. Chemicals were applied via the perfusion system.

TRPM8 = TRPM8 (Homo sapiens, UniProt Q7Z2W7); conditions: literature (Vogt-Eisele 2007); cited from earlier work
Chain of TRPM8 (Q7Z2W7 whole entry, species assumed): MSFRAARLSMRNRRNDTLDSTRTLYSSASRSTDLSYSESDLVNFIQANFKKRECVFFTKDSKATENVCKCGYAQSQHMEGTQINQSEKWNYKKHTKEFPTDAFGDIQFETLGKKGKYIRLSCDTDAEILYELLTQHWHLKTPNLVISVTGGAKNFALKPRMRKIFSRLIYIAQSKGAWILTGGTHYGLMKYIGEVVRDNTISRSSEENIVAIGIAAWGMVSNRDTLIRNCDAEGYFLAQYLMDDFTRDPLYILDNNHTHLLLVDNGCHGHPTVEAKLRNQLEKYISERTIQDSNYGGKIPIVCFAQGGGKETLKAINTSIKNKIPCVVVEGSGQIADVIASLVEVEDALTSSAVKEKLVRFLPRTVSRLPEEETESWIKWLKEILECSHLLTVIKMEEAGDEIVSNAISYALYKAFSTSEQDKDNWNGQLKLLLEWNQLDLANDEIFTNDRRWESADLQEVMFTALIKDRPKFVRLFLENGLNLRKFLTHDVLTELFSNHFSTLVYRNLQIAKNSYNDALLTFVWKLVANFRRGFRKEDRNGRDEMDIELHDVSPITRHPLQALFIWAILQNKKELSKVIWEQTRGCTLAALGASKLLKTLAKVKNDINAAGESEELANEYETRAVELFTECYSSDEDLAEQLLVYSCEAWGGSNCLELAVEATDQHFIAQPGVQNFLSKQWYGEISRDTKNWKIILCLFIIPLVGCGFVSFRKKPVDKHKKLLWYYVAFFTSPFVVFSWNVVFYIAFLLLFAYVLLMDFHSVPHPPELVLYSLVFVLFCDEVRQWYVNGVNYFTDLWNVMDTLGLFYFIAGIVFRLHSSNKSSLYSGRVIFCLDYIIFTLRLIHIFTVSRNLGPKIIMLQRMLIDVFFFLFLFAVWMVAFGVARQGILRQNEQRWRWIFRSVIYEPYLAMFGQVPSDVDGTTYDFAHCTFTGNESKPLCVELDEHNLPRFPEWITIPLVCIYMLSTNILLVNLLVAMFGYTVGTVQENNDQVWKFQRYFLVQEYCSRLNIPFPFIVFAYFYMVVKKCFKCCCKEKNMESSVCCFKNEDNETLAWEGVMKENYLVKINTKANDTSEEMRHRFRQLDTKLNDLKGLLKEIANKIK

closed head injury = assay: Mouse model of closed head injury, Neurological Severity Score (NSS); format: in vivo; conditions: subcutaneous 0.751 μg/gr body weight 15 min after injury, up to 27 days
Text: Brain injury is known to disrupt the blood-brain barrier and to induce edema and release auto-destructive factors that produce delayed neuronal damage and neuronal cell death. An experimental model of […] (CHI) in the rat and mouse has been developed and studied mechanistically (Beni-Adani et al 2001; Chen et al 1996). In the present study, CHI was induced under ether anesthesia by allowing a metal rod (333 g) to fall over the exposed skull covering the left hemisphere in the midcornal plane of a 35-45 g Mouse. […] Neurobehavioral evaluations were performed over the next 27 d.
A Neurological Scoring System (NSS) was used to determine ability to perform 10 different behavioral tasks, involving motor ability, balance, and alertness of the mice (Table 4). One point is assigned for failing to perform each task; thus, a normal uninjured mouse scores 0. Injury severity is defined by initial NSS, which is evaluated 1 h post-CHI and referred to as “NSS1.” This value is also a reliable predictor of clinical outcome, with fatal or near-fatal injury corresponding to NSS1 of 7-8; moderate injury to NSS1 of 5-6, and mild injury to NSS1 of <4.

TRPM7 [2] = target: T2, TRPM7; assay: cell-based; conditions: read-out: Inhibition of total presynaptic strength (S)
TRP = target: T3, TRP (Drosophila melanogaster, UniProt P19334); assay: Light-induced current (LIC) in photoreceptor cells of wild-type flies (native TRP)
T3 sequence (P19334 1-1275): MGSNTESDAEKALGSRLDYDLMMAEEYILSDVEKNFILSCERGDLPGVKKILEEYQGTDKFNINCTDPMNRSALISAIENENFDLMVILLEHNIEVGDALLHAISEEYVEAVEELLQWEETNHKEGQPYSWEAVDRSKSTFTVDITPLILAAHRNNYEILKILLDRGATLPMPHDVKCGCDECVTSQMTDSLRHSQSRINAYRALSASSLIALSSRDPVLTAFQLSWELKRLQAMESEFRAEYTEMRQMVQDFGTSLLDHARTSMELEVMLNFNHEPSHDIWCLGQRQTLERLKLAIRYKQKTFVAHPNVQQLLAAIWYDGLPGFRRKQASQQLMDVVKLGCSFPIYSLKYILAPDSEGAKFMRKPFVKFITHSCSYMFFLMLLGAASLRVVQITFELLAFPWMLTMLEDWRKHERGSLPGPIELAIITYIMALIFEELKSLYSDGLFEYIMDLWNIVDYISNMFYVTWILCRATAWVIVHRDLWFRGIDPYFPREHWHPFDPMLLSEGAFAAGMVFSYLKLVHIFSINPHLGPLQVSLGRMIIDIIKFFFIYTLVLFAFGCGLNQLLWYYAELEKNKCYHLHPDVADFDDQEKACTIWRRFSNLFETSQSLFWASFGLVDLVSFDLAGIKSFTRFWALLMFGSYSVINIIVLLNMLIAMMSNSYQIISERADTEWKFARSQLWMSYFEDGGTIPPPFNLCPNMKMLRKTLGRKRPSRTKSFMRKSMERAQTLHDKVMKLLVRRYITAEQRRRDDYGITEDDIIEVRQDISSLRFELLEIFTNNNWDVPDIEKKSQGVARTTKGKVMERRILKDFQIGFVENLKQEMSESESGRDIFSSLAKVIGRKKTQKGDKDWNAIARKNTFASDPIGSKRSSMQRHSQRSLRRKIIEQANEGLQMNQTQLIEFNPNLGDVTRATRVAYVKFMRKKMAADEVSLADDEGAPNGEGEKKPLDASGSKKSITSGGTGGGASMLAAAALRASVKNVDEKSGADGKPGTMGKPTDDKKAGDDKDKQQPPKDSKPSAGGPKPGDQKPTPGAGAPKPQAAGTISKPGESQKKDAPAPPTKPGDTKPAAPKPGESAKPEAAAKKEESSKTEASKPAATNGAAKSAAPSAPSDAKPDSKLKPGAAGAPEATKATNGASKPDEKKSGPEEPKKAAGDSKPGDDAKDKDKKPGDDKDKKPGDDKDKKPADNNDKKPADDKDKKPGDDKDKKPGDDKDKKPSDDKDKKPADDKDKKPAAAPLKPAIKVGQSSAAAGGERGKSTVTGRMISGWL
Protocol: Drosophila white-eyed flies of the following strains were used: wt and trp^P343. Flies were raised at 24° C. in a 12 h light/dark cycle.
A tungsten trans-illumination light (12 V, 100 W halogen lamp, in conjunction with a Schott OG 590 orange edge filter and a KG3 heat filter) provided illumination for stimulation of the photoreceptors in all experiments. Stimulating light was applied via a condenser lens (Carl Zeiss Microlmaging, Inc.) and was attenuated by neutral density filters. The maximal luminous intensity of the unattenuated orange light at the level of the ommatidia was 3.2 mW/cm^2.
Dissociated Drosophila ommatidia were prepared from newly emerged flies (<1 h after eclosion) that were kept in the dark 12-18 h before the experiment. Whole-cell, patch-clamp recordings were performed as described in Peretz et al, 1994. Currents were recorded at 21° C. using borosilicate patch pipettes of 8-10 MO and an Axopatch 200B™ (Molecular Devices, Inc.) voltage-clamp amplifier. Voltage-clamp pulses were generated and data captured using a Digidata 1200™ interfaced to a computer running pClamp 8.0 software (Axon Instruments, Inc.). Currents were filtered using the 8-pole low pass Bessel filter of the patch-clamp amplifier at 5 kHz and sampled at 10 kHz. Series resistance was compensated to ˜80%. […]

TRPM7 [3] = target: T2, TRPM7; conditions: 500 μM
TRPM7 [4] = conditions: 500 μM
native TRPL channels = target: T4, native TRPL channels (Drosophila melanogaster, UniProt P48994); assay: Light-induced current (LIC) in isolated ommatidia of trp^P343 mutant (native TRPL); format: cell-based; conditions: trp^P343 mutant photoreceptor cells, 500 μM
T4 construct: from tissue; host or cells: dissociated ommatidia of newly emerged white-eyed trpP343 flies
T4 sequence (P48994 1-1124): T1 sequence (P48994 1-1124)
Text: Series resistance was compensated to ˜80%.
All solutions were titrated to pH 7.15. […] All solutions were titrated to pH 7.2. […] Chemicals were applied via the perfusion system.

Compound	Effect on TRPL-mediated current (TRPL channels; S2 cells)	TRPL Activation/Inhibition (TRPL channels)	TRPV3 activation (TRPV3)	Reversibility of effect on TRPL channel (TRPL channels; S2 cells)	Effect on TRPM7-mediated current (TRPM7 [1])	further results
C=C(C)[C@@H]1CC=C(C)C(O)C1 (stereo partly drawn) [Compound XVI, (5R)-5-Isopropenyl-2-methyl-2-cyclohexenol]	large decrease in the TRPL-dependent current	Inhibition				IC50 (TRPL channels): 4220 ± 400 µM
CC12CCC(CC1=O)C2(C)C (centres unmarked) [Compound XI, 1,7,7-Trimethylbicyclo[2.2.1]heptan-2-one]	activated the TRPL channel	Activation	believed to activate TRPV3			
O=C(O)/C=C/c1ccc(O)c(O)c1 [Compound XV, 3,4-Dihydroxycinnamic acid]	did not block TRPL	No effect				
Cc1ccc(C(C)C)c(O)c1 [Compound XIV, 2-Isopropyl-5-methylphenol]	inhibited TRPL; also recorded: large decrease in the TRPL-dependent current	Inhibition	activate TRPV3			
O=C/C=C/c1ccccc1 [Compound XII, trans-3-Phenyl-2-propenal]	inhibited TRPL activity; also recorded: decreased the TRPL-mediated current	Inhibition		reversible	inhibit TRPM7	TRPA1 activation (TRPA1): activated; IC50 (TRPL channels; read-out: IC50 of TRPL inhibition, S2 cells, whole-cell patch clamp): 1600 ± 300 µM
CC1(C)C2CCC1(C)C(O)C2 [Compound XVII, endo-(1R)-1,7,7-Trimethylbicyclo[2.2.1]heptan-2-ol]	activated the TRPL channel; also recorded: activated the TRPL-mediated current	Activation	believed to activate TRPV3	completely reversible rapid activation	inhibit TRPM7	Effect on current when TRPL channels were not expressed (control) (TRPL channels): no effect
CC(C)[C@@H]1CC[C@@H](C)C[C@H]1O [Compound X, 2-Isopropyl-5-methylcyclohexanol]	large decrease in the TRPL-dependent current	Inhibition			inhibit TRPM7	IC50 (TRPL channels): 1810 ± 130 µM
Cc1ccc(C(C)C)cc1O [Compound IX, 5-Isopropyl-2-methylphenol]	Large suppression of the current; also recorded: large decrease in the TRPL-dependent current	Inhibition	believed to activate TRPV3	reversibly blocked	Large and dose-dependent suppression of the current; also recorded: dramatic decrease in the TRPM7 mediated current	Effect on TRPM8 (TRPM8): only a minimal effect on TRPM8; Effect on current when TRPL channels were not expressed (control) (TRPL channels): no effect; NSS recovery after closed head injury vs saline (closed head injury): NSS scores dropped significantly more; also recorded: significant protective effect from brain damage; Reversibility of TRPM7 block (TRPM7 [1]; HEK cells): reversibly blocked activity; Effect in mock-transfected HEK293 cells (TRPM7 not expressed) (TRPM7 [1]; control): no effect was observed; inhibition at 500 µM (TRPM7 [2]): 47 ± 3%; Effect on light-induced current (LIC) of WT flies, native TRP (TRP): inhibited LIC of WT flies; Effect on vesicle release in TRPM7-GFP-expressing neurons (TRPM7 [3]; 30 APs@1 Hz): significantly decreased vesicle release; ΔF median of boutons after compound application (TRPM7 [3]; TRPM7-GFP-expressing neurons, 73 before): 75 arbitrary units; Number of FM-detectable boutons after compound application (TRPM7 [3]; TRPM7-GFP-expressing neurons, 578 before): 318; ΔF median of boutons after compound application (TRPM7 [4]; control neurons, 88 before): 87 arbitrary units; Number of FM-detectable boutons after compound application (TRPM7 [4]; control neurons, 764 before): 845; Effect on presynaptic activity in control neurons (TRPM7 [4]; neurons lacking TRPM7-GFP): did not affect presynaptic activity; Effect on vesicle release in control neurons (TRPM7 [4]; neurons lacking TRPM7-GFP): did not alter vesicle release; Effect on light-induced current (LIC) amplitude, native TRPL (native TRPL channels): dramatically reduced LIC amplitude; also recorded: inhibits the native TRPL channels
C=CCc1ccc(O)c(OC)c1 [Compound XIII, 2-Methoxy-4-(2-propenyl)phenol]	inhibited TRPL; also recorded: large decrease in the TRPL-dependent current	Inhibition	activate TRPV3			
